According to patent US11091460B2, “Syk inhibitor and use method therefor” (CHIA TAI TIANQING PHARMACEUTICAL GROUP CO., LTD., priority 2017, dated 2021):

These compounds were tested against T1, SYK kinase (Homo sapiens, UniProt P43405) (assay: In vitro test of the inhibition effect on SYK kinase (HTRF)). Settings: tyrosine kinase 0.0156 ng/μL, substrate 0.2 uM, ATP 2 uM, 23° C. 1 hour, read-out: Inhibit SYK kinase IC50.
T1 construct: purchased Invitrogen PV3857
Assay type: biochemical
Description: Experimental Example 1: In Vitro Test of the Inhibition Effect of the Example Compounds on SYK Kinase
Adenosine triphosphate concentration was controlled at 2 uM. • 4) Loaded with a Multidrop automatic dispenser, and a mixture of tyrosinase solution and tyrosine kinase-substrate-biotin/adenosine triphosphate was added in an amount of 5 ul per well, and incubated at 23° C. for 1 hour. • c) Detection phase: • 1) Added 13.33 mL of ethylenediaminetetraacetic acid solution to the Detection Buffer in the kit, added the specified amount of […] (Eu)-labeled antibody and streptavidin XL-665, and prepared the detection solution. • 2) Loaded with a Multidrop automatic dispenser, and 10 uL of the detection solution per well, incubated at 23° C. for 1 hour. It terminated the reaction of the enzyme and substrate mixture. • 3) Reading after centrifugation on a multi-function microplate reader, • d) Data Analysis: Analyzed the data with XL-Fit, and calculated the IC50 value of the compound.

IC50 [nM]	Compound
62.9	Cn1c(=O)c(Nc2ccc(N3CCOCC3)cc2)nc2ccc(-c3cnc(N)[nH]3)cc21 [Example 57, 7-(2-Amino-1H-imidazol-5-yl)-1-methyl-3-((4-morpholinephenyl)amino)quinoxaline-2(1H)-one]
78	Cn1c(=O)c(Nc2ccc(N3CCOCC3)cc2)nc2ccc(-c3cc[nH]n3)cc21 [Example 27, 1-Methyl-3-((4-morpholinephenyl)amino)-7-(1H-pyrazol-3-yl) quinoxaline-2(1H)-one]
29.7	Cn1c(=O)c(Nc2ccc(N3CCOCC3)cn2)nc2ccc(-c3cn[nH]c3)cc21 [Example 52, 1-Methyl-3-((5-morpholinepyridin-2-yl)amino)-7-(1H-pyrazol-4-yl)quinoxaline-2(1H)one]
39.3	Cn1c(=O)c(Nc2ccc(N3CCOCC3)nc2)nc2ccc(-c3cn[nH]c3)cc21 [Example 53, 1-Methyl-3-((6-morpholinepyridin-3-yl)amino)-7-(1H-pyrazol-4-yl) quinoxaline-2(1H)one]
230	Cn1c(=O)c(Nc2ccc(N3CCOCC3)cc2)nc2ccc(-c3ccncc3)cc21 [Example 28, 1-Methyl-3-((4-morpholinephenyl)amino)-7-(pyridin-4-yl)quinoxaline-2(1H)-one]
116	Cn1c(=O)c(Nc2ccc(N3CCOCC3)cc2)nc2ccc(-c3cn[nH]c3)c(Cl)c21 [Example 43, 8-Chloro-1-methyl-3-((4-morpholinephenyl)amino)-7-(1H-pyrazol-4-yl)quinoxaline-2(1H)-one]
461	Cn1c(=O)c(Nc2ccc(N3CCOCC3)cc2)nc2ccc(-c3ncc[nH]3)cc21 [Example 30, 7-(1H-imidazol-2-yl)-1-methyl-3-((4-morpholinephenyl)amino)quinoxaline-2(1H)-one]
197	Cn1c(=O)c(Nc2ccc(N3CCOCC3)cc2)nc2ccc(-c3cnc(N)s3)cc21 [Example 58, 7-(2-Aminothiazol-5-yl)-1-methyl-3-((4-morpholinephenyl)amino)quinoxaline-2(1H)-one]

Second part, the compound before the results:

Compound	IC50 [nM]
CCS(=O)(=O)N1CCN(c2ccc(Nc3nc4ccc(-c5cn[nH]c5)cc4n(C)c3=O)cc2)CC1 [Example 36, 3-((4-(4-(Ethylsulfonyl)piperazin-1-yl)phenyl)amino)-1-methyl-7-(1H-pyrazol-4-yl)quinoxaline-2(1H)-one]	6.4
C[C@H]1COCCN1c1ccc(Nc2cc3c(F)c(-c4cc[nH]n4)ccc3n(C)c2=O)nc1 [Example 14, (S) 5-fluoro-1-methyl-3-((5-(3-methylmorpholine)pyridin-2-yl)amino)-6-(1H-pyrazol-3-yl)quinoline-2(1H)-one]	237
Cn1c(=O)c(Nc2ccc(N3CCC(O)(C(F)(F)F)CC3)cn2)cc2cc(-c3cc[nH]n3)ccc21 [Example 5]	58.4
C[C@@H]1COCCN1c1ccc(Nc2cc3c(F)c(-c4cc[nH]n4)ccc3n(C)c2=O)nc1 [Example 13, (R) 5-fluoro-1-methyl-3-((5-(3-methylmorpholine)pyridin-2-yl)amino)-6-(1H-pyrazol-3-yl)quinoline-2(1H)-one]	923
COc1cc(Nc2nc3ccc(-c4cn[nH]c4)cc3n(C)c2=O)ccc1N1CCOCC1 [Example 51, 3-((3-Methoxy-4-morpholinephenyl)amino)-1-methyl-7-(1H-pyrazol-4-yl)quinoxaline-2(1H)one]	12.9
Cc1cc(Nc2nc3ccc(-c4cn[nH]c4)cc3n(C)c2=O)ccc1N1CCOCC1 [Example 49]	22.5
Cn1c(=O)c(Nc2ccc(N3CCOCC3)c(Cl)c2)nc2ccc(-c3cn[nH]c3)cc21 [Example 50, 3-((3-Chloro-4-morpholinephenyl)amino)-1-methyl-7-(1H-pyrazol-4-yl)quinoxaline-2(1H)-one]	49
Cn1c(=O)c(Nc2cccc(N3CCN(S(C)(=O)=O)CC3)c2)nc2ccc(-c3cn[nH]c3)cc21 [Example 40, 1-Methyl-3-((3-(4-(methylsulfonyl)piperazin-1-yl)phenyl)amino)-7-(1H-pyrazol-4-yl)quinoxaline-2(1H)-one]	163
